Source: US9468209B2, “Method for eradicating weeds with derivatives of 3-acetyl-5-sec-butyl-4-hydroxy-3-pyrrolin-2-one” (priority 2012, dated 2016)

Experiments:
Format in all cases: in vivo
Perilla frutescens = experiment: Leaf piece damage test; design: key: 4: The leaf completely dead; 3: Two third of the leaf withered; 2: One half of the leaf withered; 1: Only edge of the leaf withered; 0: Not damage at all; settings: 50 μg/mL, 4 days
How it was run: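 Damage was rated on day 4 on five excised 5 mm leaf segments per treatment, which had been dosed thrice with a 50 μg/mL methanol-water solution. Solvent and water controls ran alongside. Ratings were summed as level × plant count, multiplied by 100, then divided by 4 and by plants per treatment.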

Crofton weed [1] = experiment: Spray on leaves and stems of three-leaf-stage Crofton weed seedlings grown in pots in a greenhouse; design: key: 4: Plant completely dead; 3: Two thirds of the plant stems and leaves dried out; 2: Half of the plant stems and leaves dried out; 1: One third of the plant stems and leaves dried out; 0: No damage at all; settings: 50 μg/mL spray, assessed two days later
Protocol: Compounds 1, 2, 3, and 40 were separately dissolved in a small amount of methanol. The solutions were then diluted with distilled water to a concentration of 50 μg/mL. A mixture of methanol and water in the same ratio as the sample solution was also prepared and used as control in the experiment. The solutions were sprayed on leaves and stems of three-leaf-stage Crofton weed seedlings. All the plants were grown in pot in a greenhouse. The leaves were properly wet by the solutions for consistency and the treatment was repeated 3 times. The measurement of the plant damage was calculated by the formula: Damage Index=Σ(damage level×number of plants)×100/4/number of plants in each treatment.

Crofton weed [2] = experiment: Needle puncture test on Crofton weed with washes recovered from compound-treated soil; settings: after soil treatment (3 hours)
Protocol: Compounds 1, 2, 3, and 40 were dissolved in small amount of methanol and diluted with distilled water to concentration of 50 μg/mL. The solution was sprayed to the soil sample until the soil was wet but not overflows. After standing at room temperature for 3 hours, the soil sample was washed with water and methanol. The wash solution was collected and concentrated. Such process was repeated three times. The concentrated solutions were used for herbicidal activity test using the method of needle puncture on Crofton weed. Methanol water solution and pure water were used as control. The experiment for every sample was repeated six times. The spot diameters were measured with vernier caliper after the plant was kept under natural light at 25° C. for 24 hours (Table 11).

Compound | Damage level (Perilla frutescens) | Damage level (Crofton weed [1]) | Average diameter of the spot after 24 h, H2O wash (Crofton weed [2]; H2O wash) | Average diameter of the spot after 24 h, Methanol wash (Crofton weed [2]; Methanol wash)
CCCCC1NC(=O)C(C(C)=O)=C1O (stereo not shown) [Compound 14] | 2 |  |  | 
CCCCCC1NC(=O)C(C(C)=O)=C1O (stereo not shown) [Compound 15] | 3 |  |  | 
CCCCCCC1NC(=O)C(C(C)=O)=C1O (stereo not shown) [Compound 16] | 2 |  |  | 
CCCC(Cl)C1NC(=O)C(C(C)=O)=C1O (stereo not shown) [Compound 40] | 2 | 4 | 0.336 ± 0.050 mm | 0.416 ± 0.024 mm
CCC(C)C1NC(=O)C(C(=O)CCF)=C1O (stereo not shown) [Compound 44] | 3 |  |  | 
CCC(C)C1NC(=O)C(C(=O)CCc2cc(Cl)cc(Cl)c2)=C1O (stereo not shown) [Compound 48] | 2 |  |  | 
CCCC(C#N)C1NC(=O)C(=C(C)O)C1=O (stereo not shown) [Compound 53] | 2 |  |  | 
